# Test results as given in patent US12492208B2, “Crystal of pyrimidine compound” (TAIHO PHARMACEUTICAL CO., LTD., priority 2020, dated 2025).
# Where two headings read alike, the source gives them in different places.
# Columns and labels:
# [1] = non-clinical tests; substrates of p-gp or Bcrp; cited from earlier work
# brain metastatic cancer = conditions: clinical tests; cited from earlier work
# [2] = Dynamic vapor sorption (DVS) test; format: physicochemical; conditions: for hygroscopicity determination: from mass increase under 95% relative humidity; for Weight change rate, Adsorption / Weight change rate, Desorption: 25° C.
# Description: Dynamic vapor sorption tests were conducted using a type II crystal of compound (I) with1 equivalent of fumaric acid, a free-form type II crystal of the same, a free-form type I crystal of the same, a type V crystal of the same with 1 equivalent of fumaric acid, and a crystal of the same with 1 equivalent of L-tartaric acid obtained in the Examples and Reference Examples.
# The dynamic vapor sorption test was conducted for measurement according to the following conditions.
# Approximately 10 mg of each sample was packed in a dedicated quartz holder, and the weight of the sample at each humidity was continuously measured and recorded under the following conditions.
# [3] = Blood concentration measurement test; format: in vivo, female rats (Crl:CD (SD)); conditions: rat; for AUC(0-t): read-out: AUC0-6hr
# Description: Blood concentration measurement tests were conducted for the type I crystal of compound (I), the type II crystal of compound (I), and the type II crystal of compound (I) with 1 equivalent of fumarate obtained in the Examples. Specifically, 0.5% HPMC containing 0.1N hydrochloric acid was used for the type I crystal of compound (I) and 0.5% HPMC was used for the type II crystal of compound (I) and the type II crystal of compound (I) with 1 equivalent of fumaric acid to convert each crystal into the compound (I) (free-form) in terms of molecular weight so as to prepare suspensions of 100 mg/10 mL and 300 mg/10 mL. These administration solutions were orally administered to female rats (Crl:CD (SD), Charles River Laboratories Japan, Inc.) kept under feeding conditions at a volume of 10 mL/kg body weight using an oral administration sonde. After administration, the rats were returned to the rat cage and their conditions were checked. Water and feeding were freely available in the cage. At 0.5, 1, 2, 4, and 6 hours after administration, the rats were anesthetized with isoflurane, and approximately 80 μL of blood was collected from the jugular vein using a heparin-coated syringe and an injection needle (25 G).
# The collected blood was ice-cooled and plasma was separated by centrifugation. After the blood collection was completed, the rats were returned to the rat cage and the state after awakening of anesthesia was checked. After the final blood collection, the depth of isoflurane anesthesia was checked. Then, the limbs were fixed in a supine position with a small animal experiment holding apparatus, and the abdomen was opened such that each rat was euthanized by exsanguination through an incision in the abdominal aorta and vena cava.
# AUC0-6 hr (Area under the blood concentration-time curve for 0 to 6 hours after administration calculated by the trapezoidal method), Cmax (maximum blood concentration), and Tmax (time to reach maximum blood concentration) were calculated from the concentration of the compound (I) in each plasma measured by the MRM method using LC/MS/MS and quantified from the calibration curve using Phoenix WinNonlin (v6.4.0,Certara USA, Inc.).
# Solid stability test = format: physicochemical; conditions: for Amount of related substances after storage / Chemical purity after storage / change in the powder X-ray diffraction pattern / increase in related substances: 60° C. (closed system), 4 weeks
# Description: The free-form type II crystals of the compound (I) and type II crystals thereof with 1 equivalent of fumaric acid obtained in the Examples and Comparative Examples were evaluated for solid stability after storage for 4 weeks. • Storage condition: 60° C. (closed system) • Storage period: 4 weeks • Stored amount: Approximately 30 mg • Storage container: Glass bottle
# Approximately 1 mg of a sample was weighed, dissolved in approximately 1 mL of a liquid mixture of water/acetonitrile (1:1), and 5 μL of this solution was accurately measured. Changes in the amount of related substances (the amount of substances detected other compound (I)) were analyzed by HPLC by the following method. Hplc Analysis Method (Stability Test)
# The amount of related substances in the sample solution was measured by HPLC analysis. Handling of the apparatuses, including data processing, was in accordance with the methods and procedures instructed for each apparatus. • Column: XSelect CSH C18 (4.6×150 mm, 3.5 μm) manufactured by Waters • UV detection: 246 nm • Column temperature: 40° C. • Flow rate: 1.0 mL/min • Sample cooler: 5° C. • Sample concentration: 1 mg/mL • Mobile phase A: Liquid mixture of 5 mmol/L ammonium formate buffer (pH 6.5)/acetonitrile (9:1) • Mobile phase B: Acetonitrile
# [4] = female, Crl:CD (SD), plasma, po, 100 mg/kg
# [5] = oral, 300 mg/kg, listed as Type I crystal of compound (I) (with hydrochloric acid)
# [6] = oral, listed as type I crystal of compound (I) with hydrochloric acid
# [7] = listed as Type II crystal with 1 equivalent of fumaric acid
# [8] = oral, 100 mg/kg, listed as Type II crystal of compound (I) with 1 equivalent of fumaric acid
# [9] = oral, 300 mg/kg, listed as Type II crystal of compound (I) with 1 equivalent of fumaric acid
Compound,hygroscopicity determination [2],"Weight change rate, Adsorption ([2]; relative humidity 5%) [%]","Weight change rate, Desorption ([2]; relative humidity 5%) [%]","Weight change rate, Adsorption ([2]; relative humidity 20%) [%]","Weight change rate, Desorption ([2]; relative humidity 20%) [%]","Weight change rate, Adsorption ([2]; relative humidity 40%) [%]","Weight change rate, Desorption ([2]; relative humidity 40%) [%]","Weight change rate, Adsorption ([2]; relative humidity 60%) [%]","Weight change rate, Desorption ([2]; relative humidity 60%) [%]","Weight change rate, Adsorption ([2]; relative humidity 80%) [%]","Weight change rate, Desorption ([2]; relative humidity 80%) [%]","Weight change rate, Adsorption ([2]; relative humidity 95%) [%]","Weight change rate, Desorption ([2]; relative humidity 95%) [%]",change in the powder X-ray diffraction pattern (Solid stability test),increase in related substances (Solid stability test),AUC 0-6 hr increase when the dose was increased from 100 mg/kg to 300 mg/kg ([3]; oral) [times],Cmax increase when the dose was increased from 100 mg/kg to 300 mg/kg ([3]; oral) [times],other results
CS(=O)(=O)CCNCc1ccc(-c2ccc3ncnc(Nc4ccc(OCc5cccc(F)c5)c(Cl)c4)c3c2)o1 [Lapatinib],,,,,,,,,,,,,,,,,,brain penetration properties [1]: limited; effects against brain metastatic cancer (brain metastatic cancer): sufficient effects of these agents could not be obtained
"C=CC(=O)N1C[C@H](n2c(C#CC3CC3)c(C(=O)N[C@H](C)c3ccccc3)c3c(N)ncnc32)C[C@@H]1C [crystal of compound (I) with 1 equivalent of L-tartaric acid] [7-((3R,5S)-1-acryloyl-5-methylpyrrolidin-3-yl)-4-amino-6-(cyclopropylethynyl)-N—((R)-1-phenylethyl)-7H-pyrrolo[2,3-d]pyrimidine-5-carboxamide]",highly hygroscopic,0.50,0.54,1.05,1.16,1.60,1.67,2.16,2.38,3.26,3.64,6.41,6.41,,,,,
"C=CC(=O)N1C[C@H](n2c(C#CC3CC3)c(C(=O)N[C@H](C)c3ccccc3)c3c(N)ncnc32)C[C@@H]1C [free-form type I crystal of compound (I), 7-((3R,5S)-1-acryloyl-5-methylpyrrolidin-3-yl)-4-amino-6-(cyclopropylethynyl)-N—((R)-1-phenylethyl)-7H-pyrrolo[2,3-d]pyrimidine-5-carboxamide]",almost non-hygroscopic,0.01,0.01,0.04,0.04,0.10,0.13,0.26,0.60,0.50,0.69,,0.72,,,,,"Cmax [3, 4]: 2670 nM; AUC(0-t) [3, 4]: 7.42 µM·h; Tmax ([3]; female, Crl:CD (SD), plasma, po, 100 mg/kg, read-out: Tmax): 0.75 h; AUC(0-t) ([3]; female, Crl:CD (SD), plasma, po, 300 mg/kg): 7.11 µM·h; Cmax [3, 5]: 2250 nM; Tmax [3, 5]: 3.25 h; AUC 0-6 hr increase when the dose was increased from 100 mg/kg to 300 mg/kg [3, 6]: 1.0 times; Cmax increase when the dose was increased from 100 mg/kg to 300 mg/kg [3, 6]: 0.8 times"
"C=CC(=O)N1C[C@H](n2c(C#CC3CC3)c(C(=O)N[C@H](C)c3ccccc3)c3c(N)ncnc32)C[C@@H]1C [free-form type II crystal of compound (I)] [7-((3R,5S)-1-acryloyl-5-methylpyrrolidin-3-yl)-4-amino-6-(cyclopropylethynyl)-N—((R)-1-phenylethyl)-7H-pyrrolo[2,3-d]pyrimidine-5-carboxamide]",almost non-hygroscopic,0.01,0.01,0.02,0.03,0.05,0.06,0.08,0.08,0.10,0.11,,0.12,no change,almost no increase,1.5,1.2,"Amount of related substances after storage (Solid stability test): 0.12%; Chemical purity after storage (Solid stability test): 99.88%; Amount of related substances before storage (Solid stability test): 0.13%; Chemical purity before storage (Solid stability test): 99.87%; AUC0-6hr ([3]; oral, 100 mg/kg): 5.79 µM·h; Cmax ([3]; oral, 100 mg/kg): 1880 nM; Tmax ([3]; oral, 100 mg/kg): 1.50 h; AUC0-6hr ([3]; oral, 300 mg/kg): 8.53 µM·h; Cmax ([3]; oral, 300 mg/kg): 2250 nM; Tmax ([3]; oral, 300 mg/kg): 3.33 h"
"C=CC(=O)N1C[C@H](n2c(C#CC3CC3)c(C(=O)N[C@H](C)c3ccccc3)c3c(N)ncnc32)C[C@@H]1C [type II crystal of compound (I) with 1 equivalent of fumaric] [7-((3R,5S)-1-acryloyl-5-methylpyrrolidin-3-yl)-4-amino-6-(cyclopropylethynyl)-N—((R)-1-phenylethyl)-7H-pyrrolo[2,3-d]pyrimidine-5-carboxamide]",almost non-hygroscopic,0.01,0.04,0.11,0.13,0.18,0.20,0.27,0.30,0.34,0.34,0.38,0.38,no change,almost no increase,1.9,1.9,"Amount of related substances after storage (Solid stability test; [7]): 0.15%; Chemical purity after storage (Solid stability test; [7]): 99.85%; Amount of related substances before storage (Solid stability test; [7]): 0.15%; Chemical purity before storage (Solid stability test; [7]): 99.85%; AUC0-6hr [3, 8]: 6.14 µM·h; Cmax [3, 8]: 2740 nM; Tmax [3, 8]: 1.25 h; AUC0-6 hr relative to the value of the type I crystal of compound (I) with the acid ([3]; oral, 300 mg/kg): 2.4 times; AUC0-6 hr relative to the value of the type II crystal of compound (I) ([3]; oral, 300 mg/kg): 2.4 times; Cmax relative to the value of the type I crystal of compound (I) with the acid ([3]; oral, 300 mg/kg): 1.7 times; Cmax relative to the value of the type II crystal of compound (I) ([3]; oral, 300 mg/kg): 1.4 times; AUC0-6hr [3, 9]: 11.9 µM·h; Cmax [3, 9]: 5340 nM; Tmax [3, 9]: 0.5 h"
"C=CC(=O)N1C[C@H](n2c(C#CC3CC3)c(C(=O)N[C@H](C)c3ccccc3)c3c(N)ncnc32)C[C@@H]1C [type V crystal of compound (I) with 1 equivalent of fumaric ] [7-((3R,5S)-1-acryloyl-5-methylpyrrolidin-3-yl)-4-amino-6-(cyclopropylethynyl)-N—((R)-1-phenylethyl)-7H-pyrrolo[2,3-d]pyrimidine-5-carboxamide]",almost non-hygroscopic,0.01,0.06,0.11,0.16,0.21,0.27,0.33,0.39,0.47,0.51,,0.59,,,,,
